Reference: patent EP4029374A1, “NITROGEN CONTAINING SURFACTANTS FOR AGRICULTURAL USE” (Nouryon Chemicals International B.V., priority 2021, dated 2022)

Assays:
wheat = test: Glyphosate formulation trial on wheat (Example 5); type: in vivo; conditions: 168 g ae/ha; glyphosate to surfactant ratio 3 : 1; picture taken at 21DAT (FIG. 13)
Description: Cocoamine-6EO betaine was compared in the same trial with tallowamine-15EO as the positive control and the surfactant-free sample as negative control in glyphosate formulations. Glyphosate to surfactant ratio was 3 : 1.
This can be seen from the picture at FIG. 13, taken at 21DAT.

morning glory; wheat = test: Green house trial of glyphosate formulations, % Control (Example 3); type: in vivo; conditions: 930, 465 and 233 g ae/ha; 28 DAT; compared with glyphosate formulation without surfactant; result in words (FIGS. 9-10)
Description: Glyphosate formulation containing oleylamphopolycarboxy glycinate (Na salt) was compared in a green house trial with glyphosate formulation containing tallowamine-10EO (as positive control) and glyphosate alone in terms of % Control. Three glyphosate rates were used, 930 g ae/ha, 465 gae/ha, and 233 g ae/ha.
The results are plotted in FIGS. 9-10.

[1] = Solubility of prior art betaine surfactants in concentrated glyphosate salt compositions; type: physicochemical
Description: WO2000038523 (Huntsman, US6500784, US6653257, EP1139761) discloses an amphoteric surfactant with the structure RCONH(CH2)n N^+R^12CH2COO- wherein R1 is alkyl or hydroxyl alkyl group with C1 to C4 and n = 2 - 4, and discloses a betaine with the structure R R^12N^+CH2COO- wherein R1 is alkyl or hydroxyl alkyl group with C1 to C4. The amphoterics disclosed there mainly functioned as a co-surfactant to solubilize a ether carboxylate in to concentrated glyphosate systems. In the context of the document, there was no mention of bioefficacy of betaines or other amphoteric surfactants by themselves. […] However, without proper testing of individual surfactant, it is not possible to determine whether the effect seen in the mixture of three surfactants comes from the claimed surfactant or the other two surfactants. Moreover, no actual bioefficacy data and especially no data are provided on the degree of "overall kill" provided in the absence of surfactants and in the presence of surfactants; without such data it is not possible to determine whether or not the claimed alkyl amido betaine was effective in enhancing herbicidal activity of glyphosate under the conditions of the test reported. This patent requires Na ion to be < 0.035% for the glyphosate formulation to be stable. Moreover, it used only IPA-glyphosate as examples. It is only recently known that many soluble surfactants in IPA-glyphosate are not soluble in concentrated K or NH4 glyphosate formulations. […] Since stearyl dimethylamidopropyl betaine itself had poor solubility in concentrated potassium glyphosate system, it is expected that the solubility of stearyl dimethylamidopropyl betaine plus ether carboxylate would be even worst in the concentrated potassium glyphosate system. Therefore, the claimed formulation in claim 1 in the document may not be stable, that is not useful, in a concentrated K glyphosate system.
US 20050170965 also indicates the aqueous glyphosate formulation is stable on storage. However, it is only recently known that many stable surfactants in IPA-glyphosate are not soluble in concentrated K or NH4 glyphosate formulations. Tests indicate that a composition of 360 g ae/l di-ammonium glyphosate could not dissolve 5.4% coco dimethyl betaine and a composition of 480 g ae/l potassium glyphosate could not dissolve 5.4% coco dimethylamidopropyl betaine. Since coco dimethyl betaine and coco dimethylamidopropyl betaine had poor solubility in concentrated potassium and di-ammonium glyphosate systems, it is expected that the claimed formulation in claim 16 of the document may not be stable in concentrated K or NH4 glyphosate systems. […]

[2] = test system: morning glory (IPOHE, a broad leaf week) and winter wheat (TRZAW, a narrow leaf grass); test: Greenhouse spray of concentrated glyphosate samples, % control at 28 DAT (Example 2); type: in vivo; conditions: glyphosate : surfactant 13:1, 489 and 978 g ae/H, result in words (FIGS. 7-8)
Description: Table. 3 Studied glyphosate formulations using various surfactants
The concentrated glyphosate samples were diluted to two glyphosate rates and sprayed in a green house so that the final glyphosate rates of the spray solutions were 489 and 978 g ae/H. Three samples at two rates equals six treatments that were sprayed on each of two species, morning glory (IPOHE, a broad leaf week) and winter wheat (TRZAW, a narrow leaf grass). […]
Higher ratio means lower surfactant concentration. A ratio of 13:1 means the sample, at the same glyphosate concentration, has 4.3 times less surfactant than a sample with a ratio of 3:1.
Sample A (glyphosate with added tallowamine-15EO) served as a positive control. Sample B containing only glyphosate without added surfactant served as a negative control.
FIGS. 7-8 illustrates the % control results at 28 DAT.

With tallowamine-15EO the control to wheat (wheat) was “excellent control”.
With “oleylamphopolycarboxy glycinate (Na salt)” the glyphosate efficacy (morning glory; wheat) was “enhanced glyphosate efficacy”.
In the case of coco dimethyl betaine, the surfactant solubility ([1]; in a composition of 360 g ae/l di-ammonium glyphosate) is reported as less than 5.4%.
For “Ethoxylated cocoamine (6EO) betaine [cocoamine-6EO betaine]”, the control to wheat (wheat) was “excellent control”.
In the case of CCCCCCCCCCCCCCCCCC(=O)NCCC[N+](C)(C)CC(=O)[O-] [stearyl dimethylamidopropyl betaine], the surfactant solubility ([1]; in a composition of 51.3% potassium glyphosate) is reported as less than 1.8%.
In the case of tallow diamine trimethyl di-betaine, the glyphosate bioefficacy [2] is reported as “enhanced glyphosate bioefficacy even at very low rate”.
With coco dimethylamidopropyl betaine the surfactant solubility ([1]; in a composition of 360 g ae/l potassium glyphosate) was less than 80 g/L and the surfactant solubility ([1]; in a composition of 480 g ae/l potassium glyphosate) was less than 5.4%.
